Measured values taken from US20220265659A1, “METHODS AND COMPOSITIONS FOR TREATING PAX6-DEFICIENCY RELATED DISEASE” (INSERM (INSTITUT NATIONAL DE LA SANTÉ ET DE AL RECHERCHE …, priority 2019, published 2022).

Assays:
[1] = system: PAX6-target gene expression; assay: qRT-PCR analysis of PAX6-target gene expression in rescue experiments; format: cell-based, Human; settings: mutated limbal stem cells
Procedure: (§1) Cells and culture conditions: Human mutated limbal epithelial stem cells (mut-LSCs) were obtained by genome editing (Crispr/cas9) of primary limbal stem cells, as described in Roux et al. (Roux, 2018 Stem cells). mut-LSCs and WT controls were cultured, as described earlier (Roux, 2018 Stem cells), in Keratinocyte serum-free medium (K-sfm) (Gibco™, Life Technologies), supplemented with 25 μg/mL Bovine Pituitary Extract (BPE; Gibco™, Life Technologies), 0.2 ng/mL Epidermal Growth Factor (EGF, Peprotech), 0.4 mM CaCl2, 2 mM Glutamine (Gibco™, Life Technologies) and 100 U/mL Penicillin/Streptomicin (Gibco™, Life Technologies). Routine subcultures were obtained by detaching cells with StemPro™ Accutase™ Cell Dissociation Reagent (Gibco™, Life Technologies) and replating at 2,000 cells/cm^2 (T-LSCs) or 3,000 cells/cm^2 (PAX6^+/− T-LSCs). All cells were negative for mycoplasma contamination (monthly tested).
(§2) Rescue experiments: Mut-LSCs were treated with each compound (Duloxetine, Ritanserine and Topotecan) directly added into the culture medium from 0.5 μg/mL to 4 μg/mL. No cell toxicity has been observed up to 10 μg/mL. The optimal concentration for each experiment (qRT-PCR, cell migration and cell adhesion) was 0.5 μg/mL. As positive control, 2 μg/mL recombinant PAX6 protein coupled with an 11R-tag (recPAX6, LD Biopharma Inc) was added, as described elsewhere (Roux et al. 2018 Stem cells).
(§3) qRT-PCR analysis: Cells were treated for 10 h with either compound or recPAX6 for rescue experiments, and harvested as a dry pellet. RNA was then extracted using RNEasy Mini kit (Qiagen) and cDNA were synthetized from 1 μg RNA using iScript cDNA synthesis kit (Bio-Rad). Quantitative PCR were performed in triplicate using […] SYBR Green PCR Master Mix (Absource Biotools). Expression of each gene was calculated using the 2^−ΔΔCt method. Results are presented as fold change normalized to B2M house-keeping gene and relative to control (treated with protein buffer or untreated) T-LSCs. Specific primers sequences used are listed in Suppl.

PAX6 protein = assay: Western blot analysis of PAX6 protein production; format: cell-based, Human; set-up: rescue of PAX6 haploinsufficiency in vitro: unit of the concentration uncertain; settings: for rescue of the production of endogenous PAX6 protein: mutated limbal stem cells
Procedure: as §1
[…] No cell toxicity has been observed up to 10 μg/mL. […] As positive control, 2 μg/mL recombinant PAX6 protein coupled with an 11R-tag (recPAX6, LD Biopharma Inc) was added, as described elsewhere (Roux et al. 2018 Stem cells).
Western blot analysis: Cells were harvested as a dry pellet, […] recPAX6 protein or its buffer for rescue experiments, lysed in RIPA buffer supplemented with Protease and Phosphatase Inhibitor Cocktail EDTA-Free (Roche) for 15 min on ice and centrifuged for 15 min at 4° C. at 15,000×g. Protein concentration was measured using Pierce BCA Protein Assay kit (Thermo Fisher Scientific) following manufacturer instructions. Thirty micrograms of total protein or 10 ng of recPAX6 protein were loaded on a SDS-PAGE gel (10%), transferred to nitrocellulose membranes using semi-dry method. Membranes were pre-stripped using Re-Blot Plus Strong solution (EMD Millipore) for 15 min, blocked twice for 5 min in 5% milk solution and incubated in primary antibody (PAX6, ab2237, Millipore, 1/1,000) overnight at 4° C. After 3 washing of 10 min in TBS with 0.2% Tween (TBS-T), membranes were incubated for 1 h with secondary antibody (Goat anti-rabbit HRP, BD Pharmingen) diluted in TBS-T 5% milk solution at 1/1,000. Proteins were visualized using chemiluminescence detection (Clarity™ Western ECL Substrate, Bio-Rad) on a gel imaging system (ImageQuant LAS 4000). Membranes were stripped again, incubated 90 min at room temperature with ACTIN (sc1615, 1/500, Santa Cruz) antibody diluted in TBS-T 5% milk, washed 3×10 min in TBS-T and incubated for 1 h in secondary antibody (Rabbit anti-goat HRP, 1/20,000, Jackson ImmunoResearch) at room temperature before revelation. Signal quantifications were made using ImageJ 1.49 software (NIH). Results are presented after ACTIN normalization.

[2] = system: mutated limbal stem cells (mut-LSCs); assay: In vitro migration test on IBIDI chambers; format: cell-based, Human; settings: for rescue of cell migration: mutated limbal stem cells
Procedure: as §1
In vitro migration test: WT and mut-LSCs were seeded into culture-inserts 2 well at 25,000 cells per well in 6-well plates (IBIDI®). […] Sixteen hours after plating, the inserts were removed creating a gap of 500 μm between cells. Patches were overlaid with culture medium and closure of the gap was monitored for 10 h, taking pictures at regular time intervals. Gap width was measured using ImageJ 1.49 software (NIH). Results are presented as percent of gap width normalized at 100% at t=0 h.

Mut-LSCs = assay: Rescue experiments: compound added to the culture medium of Mut-LSCs (cell toxicity, optimal concentration); format: cell-based, Human; settings: qRT-PCR, cell migration and cell adhesion
Procedure: as §1, §2

PAX6 = assay: qRT-PCR analysis for PAX6 expression with amplicon sequencing; format: cell-based, Human
Procedure: as §1, with “T-LSCs).” for “T-LSCs). All cells were negative for mycoplasma contamination (monthly tested).”
as §3, with “Results are presented as fold change normalized to B2M house-keeping gene and relative to control (treated with protein buffer or untreated) T-LSCs.” left out

[3] = system: limbal stem cells (mut-LSC); settings: mut-LSC with a nonsense mutation found in patients; cited from earlier work

| Molecule | rescue of PAX6-target gene expression [1] | PAX6 protein production (PAX6 protein; FIG. 5: W mutant limbal cells) | rescue of the production of endogenous PAX6 protein (PAX6 protein) | rescue of cell migration [2] | optimal concentration for each experiment (Mut-LSCs) [µg/mL] | PAX6 protein production (PAX6 protein; FIG. 4: mutated LT (W) cells, western blot, 0.5, 1 or 5 mM) | rescue of PAX6 haploinsufficiency in vitro (PAX6 protein; FIG. 1: mut-LT limbal stem cells, 0.5 (unit uncertain), 10 h, qRT-PCR for PAX6-target gene expression (A), western blot for PAX6 protein (B)) | rescue of migration of mutated limbal cells ([2]; FIG. 2: mut-LT, 0.5 µg/mL, 2 h before migration start, IBIDI chambers) | amplification of the mutated allele (amplicons sequenced) (PAX6; FIG. 3: mut-LSCs + Topotecan) | WT allele transcription (PAX6 expression by qRT-PCR) (PAX6; FIG. 3: mutated cells (mut-LSC)) | PAX6 expression by qRT-PCR (PAX6; FIG. 3: treated WT-LSCs (normal LSCs)) | rescue of PAX6 gene expression at the RNA level (PAX6; mutated limbal stem cells) | rescue of altered PAX6 target gene expression, cell adhesion, cell migration and proliferation [3] |
| --- | --- | --- | --- | --- | --- | --- | --- | --- | --- | --- | --- | --- | --- |
| CNCC[C@H](Oc1cccc2ccccc12)c1cccs1 [Duloxetine, duloxetine] | able to rescue | rescued | able to rescue | able to rescue | 0.5 |  |  |  |  |  |  |  |  |
| Cc1nc2sccn2c(=O)c1CCN1CCC(=C(c2ccc(F)cc2)c2ccc(F)cc2)CC1 [Ritanserine, ritanserin] | able to rescue |  | able to rescue | able to rescue | 0.5 | rescued |  |  |  |  |  |  |  |
| CC[C@@]1(O)C(=O)OCc2c1cc1n(c2=O)Cc2cc3c(CN(C)C)c(O)ccc3nc2-1 [Topotecan, topotecan] | able to rescue |  | able to rescue | able to rescue | 0.5 |  | can rescue | can rescue | did not identified any amplification | activates | not enhanced | able to rescue |  |
| recombinant PAX6 protein: recombinant PAX6 protein coupled with an 11R-tag (recPAX6, LD Biopharma Inc), positive control |  |  |  |  |  |  |  |  |  |  |  |  | rescued |
